Legend:
[1] = in vitro half-life / metabolism in mouse blood; assay type: in vitro ADME
[2] = tested on: HT-29 (human colon adenocarcinoma) cells; assay: modified clonogenic assay, potentiation of chlorambucil cytotoxicity; assay type: cell-based
Description: HT-29 (human colon adenocarcinoma) cells were obtained from Dr. Roberto Ceriani (Cancer Research Fund of Contra Costa County, Walnut Creek, CA) and were used in log phase of growth unless otherwise specified. Chlorambucil (CMB) was obtained from Sigma (St. Louis, MO) and was dissolved in 100% ethanol. All GST inhibitors were dissolved in ethanol, DMSO, or water just prior to use. The same amount of solvent added to culture medium served as the vehicle control.
In a modified clonogenic assay for cytotoxicity, cells were suspended at 2 x 10^5 cells/ml in serum-free medium in the presence of vehicle or inhibitor. […] Cells were incubated for 2 hours, then varying doses of CMB were added. At the end of a second 2-hour incubation, cells were diluted to 7.5-10 x 10^3/ml in serum-containing medium and plated in quadruplicate at 200 µl/well in Microtest III microtiter plates.
Plates were incubated for 6 days and assayed by a modified methylene blue method. Briefly, cells were fixed with 1.25% glutaraldehyde in PBS then stained with 0.05% methylene blue in distilled water. Plates were washed several times in distilled water to remove unretained dye and retained dye was resolubilized in 0.03 N HCl. Plates were read at 650 nm in a Molecular Devices Vmax plate reader (Molecular Devices, Redwood City, CA). […] A dose modification factor (DMF), a measure of potentiation of cytotoxicity, was calculated for each inhibitor by dividing the IC50 value of CMB without inhibitor treatment by the IC50 value for CMB with inhibitor treatment.

[3] = in vitro half-life in human blood; assay type: in vitro ADME

SMILES: CCNC(=O)C(N)CCC(=O)NC(CSCc1ccccc1)C(=O)N[C@@H](C(=O)OCC)c1ccccc1 (stereo partly drawn) [TER300, γE ethyl amide-C(Bz)-R-(-)-ϕG ethyl ester]
- half-life compared with TER199 [1]: longer half-lives than TER199
- rate of metabolism [1]: intermediate between that of TER199 and TER278
- rate of metabolism (HT-29 cell culture): intermediate between that of TER199 and TER278
- amount required to achieve equivalent potentiation of chlorambucil, relative to TER199 [2]: Four times as much
- DMF for chlorambucil toxicity ([2]; HT-29, 50 µM, mean ±SD of three experiments): 1.45 ± 0.16
- half-life, comparison of the three compounds [3]: approximately the same

Reference: patent publication EP0831877B1, “METABOLIC EFFECTS OF CERTAIN GLUTATHIONE ANALOGS” (TELIK, INC., priority 1995, dated 1996)
